In patent publication US8916702B2 (priority 2012, dated 2014):
Like-named read-outs stand apart in the source and are kept apart here.

Tested on: HCV pseudoparticles (genotype 1a HCV E1 and E2 envelope, H77C isolate)
Test: microbe, parasite or virus in culture
Type: cell-based
Settings: Hepatitis C virus
[1] = Huh-7, 48 h, HCV pseudoparticles (genotype 1a, H77C) in Huh7 cells, average of duplicate, luciferase 2 days after infection
[2] = Huh-7, read-out: Activity (EC50 class), HCV pseudoparticles (genotype 1a, H77C) in Huh7 cells, EC50 expressed as class A/B
[3] = Huh-7, 48 h, read-out: Activity (EC50 class), HCV pseudoparticles, Huh7 cells, luciferase 2 days after infection, average of duplicates
[4] = Huh-7, 48 h, HCV pseudoparticles, Huh7 cells, luciferase 2 days after infection, average of duplicates
[5] = Huh-7, 48 h, read-out: Activity (EC50 class), HCV pseudoparticle infection of Huh7 cells, luciferase 2 days after infection, EC50 expressed as class A/B
[6] = Huh-7, 48 h, HCV pseudoparticle infection of Huh7 cells, luciferase 2 days after infection, average of duplicates

| Structure (SMILES) | EC50 [2] [nM] | EC50 [5] [nM] | also measured |
| --- | --- | --- | --- |
| COC(=O)[C@H](CNC(=O)C(=O)Nc1ccc(Cc2ccccc2)cc1)NC(=O)c1ccc(Nc2nc(NC3(c4ccc(Cl)cc4)CC3)nc(OCC(F)(F)F)n2)cc1 [Compound 3091] | 0.01 to 10 | – | EC50 [1]: 2.85 nM |
| CC(C)(C)c1cccc(NC(=O)C(=O)NC[C@H](NC(=O)c2ccc(Nc3nc(NC4(c5ccc(Cl)cc5)CC4)nc(OCC(F)(F)F)n3)cc2)C(=O)O)c1 [Compound 3760] | – | – | EC50 [3]: 0.01 to 10 nM |
| COC(=O)/C(CCNC(=O)C(=O)Nc1cccc(-c2csc(C)n2)c1)=N\C(=O)c1ccc(Nc2nc(NC3(c4ccc(Cl)cc4)CC3)nc(OCC(F)(F)F)n2)cc1 [Compound 3596] | 0.01 to 10 | – | – |
| CC(C)(CNC(=O)C(=O)Nc1ccc(C#N)c(Cl)c1)CNC(=O)c1ccc(Nc2nc(NC3(c4ccc(Cl)cc4)CC3)nc(OCC(F)(F)F)n2)cc1 [Compound 3374] | 0.01 to 10 | – | – |
| CN(C)CCOc1ccc(NC(=O)C(=O)NCC[C@H](NC(=O)c2ccc(Nc3nc(NC4(c5ccc(Cl)cc5)CC4)nc(OCC(F)(F)F)n3)cc2)C(=O)O)cn1 [Compound 3660] | – | – | EC50 [4]: 1.67 nM; EC50 [3]: 0.01 to 10 nM |
| CN(C(=O)C(=O)NCC[C@H](NC(=O)c1ccc(Nc2nc(NC3(c4ccc(Cl)cc4)CC3)nc(OCC(F)(F)F)n2)cc1)C(=O)O)c1ccccc1 [Compound 1277] | – | 0.01 to 10 | – |
| Nc1ccc(NC(=O)C(=O)NCC[C@H](NC(=O)c2ccc(Nc3nc(NC4(c5ccc(Cl)cc5)CC4)nc(OCC(F)(F)F)n3)cc2)C(=O)O)cn1 [Compound 3630] | – | – | EC50 [3]: 0.01 to 10 nM |
| CC(C)(CNC(=O)C(=O)Nc1cccc(-c2ccccc2)c1)CNC(=O)c1ccc(Nc2nc(NC3(c4ccc(Cl)cc4)CC3)nc(OCC(F)(F)F)n2)cc1 [Compound 1582] | – | 0.01 to 10 | – |
| Cc1nccn1CCNC(=O)C(=O)NCC[C@H](NC(=O)c1ccc(Nc2nc(NC3(c4ccc(Cl)cc4)CC3)nc(OCC(F)(F)F)n2)cc1)C(=O)O [Compound 1344] | – | 0.01 to 10 | – |
| O=C(NCC(O)CNC(=O)c1ccc(Nc2nc(NC3(c4ccc(Cl)cc4)CC3)nc(OCC(F)(F)F)n2)cc1)C(=O)N1CCc2ccccc2C1 (stereo not drawn) [Compound 3464] | 0.01 to 10 | – | – |
| O=C(NC[C@H](NC(=O)c1ccc(Nc2nc(NC3(c4ccc(Cl)cc4)CC3)nc(OCC(F)(F)F)n2)cc1)C(=O)O)C(=O)NC1(Cc2ccccc2)CC1 [Compound 1415] | – | 0.01 to 10 | – |
| CC(C)(CNC(=O)C(=O)Nc1ccc(-c2nn[nH]n2)cc1)CNC(=O)c1ccc(Nc2nc(NC3(c4ccc(Cl)cc4)CC3)nc(OCC(F)(F)F)n2)cc1 [Compound 1495] | – | 0.01 to 10 | – |
| CC1CN(c2ccc(NC(=O)C(=O)NC/C(=N/C(=O)c3ccc(Nc4nc(NC5(c6ccc(Cl)cc6)CC5)nc(OCC(F)(F)F)n4)cc3)C(=O)O)cc2)CC(C)N1 (stereo not drawn) [Compound 3160] | 0.01 to 10 | – | – |
| COc1ccccc1NC(=O)C(=O)NC[C@H](NC(=O)c1ccc(Nc2nc(NC3(c4ccc(Cl)cc4)CC3)nc(OCC(F)(F)F)n2)cc1)C(=O)O [Compound 1364] | – | 0.01 to 10 | – |
| CC(C)(CNC(=O)C(N)=O)CNC(=O)c1ccc(Nc2nc(NC3(c4ccc(Cl)cc4)CC3)nc(OCC(F)(F)F)n2)cc1F [Compound 3388, N^1-(3-(4-((4-((1-(4-chlorophenyl)cyclopropyl)amino)-6-(2,2,2-trifluoroethoxy)-1,3,5-triazin-2-yl)amino)-2-fluorobenzamido)-2,2-dimethylpropyl)oxalamide] | 0.01 to 10 | – | EC50 [1]: 0.013 nM |
| CC(C)(CNC(=O)C(=O)Nc1ccc(-n2cccn2)cc1)CNC(=O)c1ccc(Nc2nc(NC3(c4ccc(Cl)cc4)CC3)nc(OCC(F)(F)F)n2)cc1 [Compound 3795] | – | – | EC50 [3]: 0.01 to 10 nM |
| COC(=O)[C@H](CCNC(=O)C(=O)Nc1cccc(-c2c[nH]cn2)c1)NC(=O)c1ccc(Nc2nc(NC3(c4ccc(Cl)cc4)CC3)nc(OCC(F)(F)F)n2)cc1 [Compound 3608] | – | – | EC50 [3]: 0.01 to 10 nM |
| CC(C)(CNC(=O)C(=O)Nc1ccc(Cl)cc1)CNC(=O)c1ccc(Nc2nc(NC3(c4ccc(Cl)cc4)CC3)nc(OCC(F)(F)F)n2)cc1F [Compound 3512] | 0.01 to 10 | – | – |
| COc1ncccc1NC(=O)C(=O)NC[C@H](NC(=O)c1ccc(Nc2nc(NC3(c4ccc(Cl)cc4)CC3)nc(OCC(F)(F)F)n2)cc1)C(=O)O [Compound 1347] | – | 0.01 to 10 | – |
| O=C(NCC[C@@H](NC(=O)c1ccc(Nc2nc(NC3(c4ccc(Cl)cc4)CC3)nc(OCC(F)(F)F)n2)cc1)C(=O)O)C(=O)Nc1ccccc1-c1ccccc1 [Compound 1532] | – | 0.01 to 10 | – |
| C[C@H](NC(=O)C(=O)NCC[C@H](NC(=O)c1ccc(Nc2nc(NC3(c4ccc(Cl)cc4)CC3)nc(OCC(F)(F)F)n2)cc1)C(=O)O)C1CC1 [Compound 1435] | – | 0.01 to 10 | EC50 [6]: 0.11 nM |
| O=C(NCC(O)CNC(=O)c1ccc(Nc2nc(NC3(c4ccc(Cl)cc4)CC3)nc(OCC(F)(F)F)n2)cc1)C(=O)NC1CCCCC1 (stereo not drawn) [Compound 3463] | 0.01 to 10 | – | – |

| Structure (SMILES) | EC50 [2] [nM] | EC50 [5] [nM] | also measured |
| --- | --- | --- | --- |
| O=C(NCC[C@H](NC(=O)c1ccc(Nc2nc(NC3(c4ccc(Cl)cc4)CC3)nc(OCC(F)(F)F)n2)cc1)C(=O)O)C(=O)Nc1cc(F)cc(F)c1 [Compound 1507] | – | 0.01 to 10 | – |
| COC(=O)[C@H](CNC(=O)C(=O)Nc1ccc(S(N)(=O)=O)cc1)NC(=O)c1ccc(Nc2nc(NC3(c4ccc(Cl)cc4)CC3)nc(OCC(F)(F)F)n2)cc1 [Compound 3087] | 0.01 to 10 | – | – |
| COC(=O)[C@H](CCNC(=O)C(=O)N[C@@H](N)C1CC1)NC(=O)c1ccc(Nc2nc(NC3(c4ccc(Cl)cc4)CC3)nc(OCC(F)(F)F)n2)cc1 [Compound 1392] | – | 0.01 to 10 | EC50 [6]: 0.14 nM |
| CC(C)(CNC(=O)C(=O)Nc1cccc(C(=N)N)c1)CNC(=O)c1ccc(Nc2nc(NC3(c4ccc(Cl)cc4)CC3)nc(OCC(F)(F)F)n2)cc1 [Compound 3041] | 0.01 to 10 | – | EC50 [1]: 0.068 nM |
| O=C(NCC[C@H](NC(=O)c1ccc(Nc2nc(NC3(c4ccc(Cl)cc4)CC3)nc(OCC(F)(F)F)n2)cc1)C(=O)O)C(=O)Nc1cccc(-c2cccnc2)c1 [Compound 3652] | – | – | EC50 [4]: 0.45 nM; EC50 [3]: 0.01 to 10 nM |
| COC(=O)[C@@H](CCNC(=O)C(=O)Nc1cccc(Oc2ccccc2)c1)NC(=O)c1ccc(Nc2nc(NC3(c4ccc(Cl)cc4)CC3)nc(OCC(F)(F)F)n2)cc1 [Compound 3578] | 0.01 to 10 | – | – |
| Cc1ccc(NC(=O)C(=O)NCC(C)(C)CNC(=O)c2ccc(Nc3nc(NC4(c5ccc(Cl)cc5)CC4)nc(OCC(F)(F)F)n3)cc2)c(C(F)(F)F)c1 [Compound 3455] | 0.01 to 10 | – | – |
| COC(=O)[C@H](CNC(=O)C(=O)Nc1cccc(Oc2ccccc2)c1)NC(=O)c1ccc(Nc2nc(NC3(c4ccc(Cl)cc4)CC3)nc(OCC(F)(F)F)n2)cc1 [Compound 3694] | – | – | EC50 [4]: 2.23 nM; EC50 [3]: 0.01 to 10 nM |
| COC(=O)/C(CCNC(=O)C(=O)Nc1ccc(Oc2ccccc2)nc1)=N\C(=O)c1ccc(Nc2nc(NC3(c4ccc(Cl)cc4)CC3)nc(OCC(F)(F)F)n2)cc1 [Compound 3593] | 0.01 to 10 | – | – |
| COC(=O)[C@H](CNC(=O)C(=O)Nc1ccc(-n2cnc(Cl)c2Cl)cc1)NC(=O)c1ccc(Nc2nc(NC3(c4ccc(Cl)cc4)CC3)nc(OCC(F)(F)F)n2)cc1 [Compound 3095] | 0.01 to 10 | – | – |
| COC(=O)[C@H](CNC(=O)C(=O)N[C@H](C)C1CCCCC1)NC(=O)c1ccc(Nc2nc(NC3(c4ccc(Cl)cc4)CC3)nc(OCC(F)(F)F)n2)cc1 [Compound 1455] | – | 0.01 to 10 | – |
| COc1ccc(CNC(=O)C(=O)NC[C@H](NC(=O)c2ccc(Nc3nc(NC4(c5ccc(Cl)cc5)CC4)nc(OCC(F)(F)F)n3)cc2)C(=O)O)cc1 [Compound 1167] | – | 0.01 to 10 | EC50 [6]: 1.32 nM |
| COC(=O)[C@H](CNC(=O)C(=O)NCc1cc(F)ccc1F)NC(=O)c1ccc(Nc2nc(NC3(c4ccc(Cl)cc4)CC3)nc(OCC(F)(F)F)n2)cc1 [Compound 1154] | – | 0.01 to 10 | EC50 [6]: 1.07 nM |
| O=C(NC[C@H](NC(=O)c1ccc(Nc2nc(NC3(c4ccc(Cl)cc4)CC3)nc(OCC(F)(F)F)n2)cc1)C(=O)O)C(=O)Nc1ccc(Oc2ccccc2)nc1 [Compound 3771] | – | – | EC50 [3]: 0.01 to 10 nM |
| CC(C)c1ccc(COc2nc(Nc3ccc(C(=O)NCC(C)(C)CNC(=O)C(=O)Nc4ccc(F)cc4F)c(F)c3)nc(NC3(c4ccc(Cl)cc4)CC3)n2)cc1 [Compound 3835, N^1-(3-(4-((4-((1-(4-chlorophenyl)cyclopropyl)amino)-6-((4-isopropylbenzyl)oxy)-1,3,5-triazin-2-yl)amino)-2-fluorobenzamido)-2,2-dimethylpropyl)-N^2-(2,4-difluorophenyl)oxalamide] | – | – | EC50 [3]: 0.01 to 10 nM |
| CN(CCCN(C)C(=O)c1ccc(Nc2nc(NC3(c4ccc(Cl)cc4)CC3)nc(OCC(F)(F)F)n2)cc1)C(=O)C(=O)Nc1cccc(F)c1 [Compound 3410] | 0.01 to 10 | – | – |
| Cc1cc(NC(=O)C(=O)NCC(C)(C)CNC(=O)c2ccc(Nc3nc(NC4(c5ccc(Cl)cc5)CC4)nc(OCC(F)(F)F)n3)cc2)sn1 [Compound 3010] | 0.01 to 10 | – | EC50 [1]: 0.014 nM |
| O=C(NCCCCNC(=O)c1ccc(Nc2nc(NC3(c4ccc(Cl)cc4)CC3)nc(OCC(F)(F)F)n2)cc1)C(=O)Nc1ccc(F)cc1F [Compound 3397] | 0.01 to 10 | – | EC50 [1]: 0.082 nM |
| O=C(NCC[C@H](NC(=O)c1ccc(Nc2nc(NC3(c4ccc(Cl)cc4)CC3)nc(OCC(F)(F)F)n2)cc1)C(=O)O)C(=O)NC1CCCCCC1 [Compound 1122] | – | 0.01 to 10 | – |
| COC(=O)[C@H](CNC(=O)C(=O)Nc1cccc(F)c1)NC(=O)c1ccc(Nc2nc(NC3(c4ccc(Cl)cc4)CC3)nc(OCC(F)(F)F)n2)cc1 [Compound 1249] | – | 0.01 to 10 | – |
| O=C(NCCNC(=O)c1ccc(Nc2nc(NC3(c4ccc(Cl)cc4)CC3)nc(OCC(F)(F)F)n2)cc1)C(=O)Nc1ccc(F)cc1 [Compound 3373] | 0.01 to 10 | – | EC50 [1]: 0.052 nM |
| O=C(NCC[C@H](NC(=O)c1ccc(Nc2nc(NC3(c4ccc(Cl)cc4)CC3)nc(OCC(F)(F)F)n2)cc1)C(=O)O)C(=O)Nc1ccc(-n2cccn2)cc1 [Compound 3237] | 0.01 to 10 | – | – |
